Measurements from patent publication US20230002446A1, “ANTI-INFLAMMATORY AGENTS” (The University of Sydney, priority 2019, published 2023).
Where no end group is shown, it is not given here. [ ]: non-standard residue; d: D form. Ala(3-Me-diazirin-3-yl) = CC1(C[C@H](N)C(=O)O)N=N1; PEG = not defined here

Columns and labels:
[1] = system: C57BL/6 mice; test: contact hypersensitivity model (DNFB-induced contact dermatitis); type: in vivo; conditions: for inflammatory response (ear thickness over 72 hours): 10 nmol subcutaneously at the abdomen, compared to PBS (FIG. 8); for specific increase in ear thickness: equivalent molar amount of 10 nmol RP23, subcutaneously at the abdomen (FIG. 9)
Description: FIG. 2—Peptide administration reduces inflammation in a mouse model of contact dermatitis and reduces myeloid inflammatory infiltrate. (A) Experimental outline of DNFB-induced contact dermatitis. (B) Ear thickness of peptide RP23 (SEQ ID NO:12) treated mice, repeated 3 times. […] Data are presented as mean±S.E.M. Statistical significance was determined (B) by multiple t tests (C) by ANOVA with Dunnett's multiple comparison test, *p<0.05, **p<0.01, ***p<0.001.
FIG. 3—The peptide effect is dependent on the peptide sequence and dose. (A) PBS, scrambled peptide or peptide MUC1SP ([…]; SEQ ID NO: 3) was injected subcutaneously seven days prior to sensitising C57BL/6 mice (n=5) with DNFB on the abdomen. […] (B) A comparison of the immunosuppressive effect of peptide RP23 (SEQ ID NO:12) and MUC1SP (SEQ ID NO: 3). (C) SEQ ID NO:12 suppressed immunity in a dose dependent manner. (D) Addition of GM-CSF to the SEQ ID NO:12 injection abrogated the immune suppression. Data are the means±S.E.M.
FIG. 8—Effects of peptide variants on the inflammatory response. Mice received one injection of PBS or one of the following peptides (10 nmol) subcutaneously at the abdomen (A) peptide RP23 (SEQ ID NO: 12), peptide AF594-RP23 (SEQ ID NO: 21), peptide K4-G3-MUC1SP (SEQ ID NO:22) or MUC1SP C fragment (SEQ ID NO: 2). Five days later, mice were challenged with DNFB at a distal site, on the ears. The thickness of the ears was measured over 72 hours.
FIG. 9—Effects of further peptide variants, without N-terminal methionine, on the inflammatory response in a model of contact dermatitis. Mice received one injection of PBS, RP23 (SEQ ID NO:12) (10 nmol) or one of the peptide variants indicated in the table including SEQ ID NO: 32 and 35 as described herein (equivalent molar amount of RP23), subcutaneously at the abdomen. Photoleucine replaces leucine where indicated, these molecules used for photo-crosslinking studies. Seven days later, abdominal skin was sensitised with a contact irritant (DNFB) and five days later, mice were challenged with DNFB at a distal site, on the ears. (A) Specific increase in ear thickness over 72 hours, data are the means+/−SEM (n=6). Statistical significance was determined by ANOVA with Dunnett's multiple comparison test to PBS only control, **p<0.01. (B) Specific increase in ear thickness at 24 hours post-challenge. Data are the means+/−SEM (n=6). Statistical significance was determined by t-test to relevant control, as indicated, *p<0.05, **p<0.01, ns=not significant.
The abdomens of 8-week old female C57BL/6 mice (Australian BioResources) were coarse shaved. A minimum of 24 hours later, RP23 (SEQ ID NO:12) was delivered via sub-cutaneous injection at the abdomen in 50 μl phosphate buffered saline. Seven days later, mice were topically sensitised to 1-fluoro-2,4-dinitrobenzene (DNFB, 0.5 vol %) in olive oil/acetone (1:4, v/v, 30 μl) via application to the shaved abdomen. Five days after sensitisation, mice were challenged on the ears with topical DNFB (0.25 vol %) in olive oil/acetone (1:4, v/v, 15 μl per ear). Ear thickness was measured daily using manual callipers from immediately before challenge, up to 96 hours post challenge. Positive controls for ear swelling consisted of mice that were injected with PBS instead of RP23. Negative or irritant controls consisted of a group of mice that received the DNFB challenge, but not the sensitisation. The average of the change in ear thickness from this control group was subtracted from the change in ear thickness of other samples to account for non-specific irritation due to the application of DNFB, olive oil and acetone.
The inventors then conducted additional in vivo studies, using a model of contact hypersensitivity, to determine the portion of RP23 responsible for its immunomodulatory activity. Mice received one injection of peptide (10 nmol) subcutaneously at the abdomen, seven days prior to sensitisation of the skin with a contact irritant (DNFB). […]

[2] = system: C57BL/6 mice; test: imiquimod-induced psoriasis model; type: in vivo
Description: FIG. 4—Peptide administration reduces local disease severity in a mouse model of psoriasis. (A) Experimental outline (B) Clinical scores of mice receiving PBS or peptide RP23 (SEQ ID NO:12) injection, compared to daily (0-4 days) topical application of glucocorticoid on the back and ear. (C) Measures of disease local to the peptide RP23 injection site. Redness was measured using an unbiased erythema meter and skin thickness by manual callipers. (D) Spleen weight at day 5 as a measure of systemic immune suppression. […] Data are presented as mean±S.E.M. Statistical significance was determined by ANOVA with Dunnett's multiple comparison test, *p<0.05, **p<0.01, ***p<0.001, ****p<0.0001.
FIG. 10. Therapeutic synergy of RP23 and topical steroid in the murine imiquimod-induced psoriasis model. Aldara cream (5% imiquimod, 57.5 mgs) was applied daily (days 0-4) to the backs of C57BL/6 female mice to induce psoriasis. Clinical scores (PASI), modified psoriasis area and severity index) of mice receiving (A) PBS or RP23 injection at day −1, with or without topical application of glucocorticoid (0.05% betamethasone dipropionate, “BD” 30 mgs) on the back at day 0 (B) PBS or RP23 injection at day 1 and topical application of glucocorticoid at day 1, in comparison to PBS injection only at day −1. Data are the means+/−SEM (n=5). Statistical significance was determined by ANOVA with Dunnett's multiple comparison test to PBS only control, *p<0.05, **p<0.01, ***p<0.001, ****p<0.0001.
The backs of 8-week old female C57BL/6 mice (Australian BioResources) were coarse shaved. A minimum of 24 hours later, 10 nmol RP23 was delivered via sub-cutaneous injection at the lower back in 200 μl phosphate buffered saline (PBS). Groups of mice acting as positive controls for disease development received injection of PBS only. One or seven days later, psoriasis-like inflammation was induced via topical application of 5% imiquimod cream (Aldara, Inova Pharmaceuticals) to the shaved back (57.5 mgs) and one ear (5 mg, divided between dorsal and ventral sides). The contralateral ear served as a negative control for imiquimod-induced inflammation. Imiquimod application was repeated daily for four consecutive days. C57BL/6 mice experience rapid weight loss (up to 20%) upon application of imiquimod cream. Supportive care was provided in the form of dietary supplementation commenced 2 days prior to imiquimod application, and intra-peritoneal injection of 300 μl sterile PBS on days two and three of imiquimod application. Disease progression was monitored for five days, by recording weight loss and grading disease of the back skin using a modified Psoriasis Area and Severity Index (PASI) clinical scoring system, that assessed only disease severity. Additionally, erythema meter (DSM II ColorMeter, Cortex Technology, Denmark) readings were taken at four quadrants on the back skin and skin backfold thickness measurements were recorded using manual callipers. Disease progression of the ear skin was determined by recording ear thickness, measured by manual callipers. As a positive control for immune suppressive therapy, groups of mice received daily topical application of betamethasone dipropionate 0.05% (MSD) cream (30 mgs on the back, 10 mgs on the ear).
Aldara cream (5% imiquimod, 57.5 mgs) was applied daily (days 0-4) to the backs of C57BL/6 female mice to induce psoriasis. Clinical scores (PASI, modified psoriasis area and severity index) of mice receiving prophylactic PBS or RP23 (at day −1), with or without topical application of glucocorticoid (0.05% betamethasone dipropionate, 30 mgs) to the back at day 0, were determined (FIG. 10A).
RP23 and BD therapy were also tested when given synergistically at a therapeutic timepoint (at day 1). Psoriasis was induced as above, but clinical scores were determined daily for 10 days after ceasing imiquimod application at day 5, to record the rate and degree of psoriasis disease resolution (FIG. 10B).

[3] = system: C57BL/6 mice; conditions: mouse, in vivo
Description: AF594-RP23^+ cells were identified by flow cytometry 24 hours after administration to C57BL/6 mice. (A) RP23 was injected subcutaneously at the lower back. […] (B) RP23 was delivered to the lungs by intranasal instillation. The percentage distribution of total RP23^+ leukocytes amongst immune cell subsets in the lungs is shown. Data are the means+/−SEM (n=4).
AF594-RP23+ cells were identified by flow cytometry 24 hours after administration to C57BL/6 mice.

[4] = daily topical 0.05% cream, 30 mgs back, 10 mgs ear

In the case of “MTPGTQSPFFLLLLLTVLTVV (listed as Homo sapiens) [SEQ ID NO: 3]”, the “ear swelling, sequence specificity” value ([1]; subcutaneous seven days prior to sensitising with DNFB (FIG. 3a)) was “the effect was specific to the SEQ ID NO: 3 sequence”.

With `CCC(=O)OCC(=O)[C@@]1(OC(=O)CC)[C@@H](C)C[C@H]2[C@@H]3CCC4=CC(=O)C=C[C@]4(C)[C@@]3(F)[C@@H](O)C[C@@]21C` [betamethasone dipropionate, reference compound] the spleen weight [2, 4] was “substantial reductions in spleen weight”, the weight loss [2, 4] was “greater degree of weight loss” and the “clinical scores (PASI), protective effect as the disease progressed” value ([2]; prophylactic: injection day -1, BD day 0, later time points) was “protective effect from BD alone was lost”. For the same compound, the “systemic immune suppression / locality of effect” value ([2]; spleen weight at day 5, distal ear thickness (FIG. 4d)) was “caused unwanted systemic immune suppression”.

“LLLLLTVLTVV (listed as Homo sapiens) [SEQ ID NO: 2]” was tested, and the “inflammatory response (ear thickness over 72 hours)” value [1] was “led to a reduced inflammatory response”.

“AF594-KKKK-PEG-MTPGTQSPFFLLLLLTVLTVV (KKKKMTPGTQSPFFLLLLLTVLTVV; AF594-KKKK-PEG N-terminal; (1)..(1) Alexa Fluor 594 backbone modification; (4)..(5) polyethylene glycol (PEG) backbone modification between residues 4 and 5; listed as Homo sapiens) [SEQ ID NO: 21]” was tested, and the “inflammatory response (ear thickness over 72 hours)” value [1] was “led to a reduced inflammatory response”, the “cells capturing the peptide in the lung” value [3] was “primarily captured by neutrophils, alveolar macrophages and DC” and the “cells capturing the peptide in the skin” value [3] was “primarily captured in the skin by neutrophils (CD11 b+Ly6G+) or CD11 b+ myeloid cell subsets”.

For “Biotin-KKKK-peg-QLTLTFVPSTLGFL*TLPVLV (no N-term Met) [scrambled variant of SEQ ID NO. 35, reference compound]”, the “specific increase in ear thickness” value [1] was “did not have a reduction in ear inflammation”.

“Biotin-KKKK-PEG-TPGTQSPFFLLLLL*TVLTVV, wherein L* is photoleucine [SEQ ID NO: 35]” was tested, and the “specific increase in ear thickness” value [1] was “confirmed”.

With “KKKKGGGMTPGTQSPFFLLLLLTVLTVV (listed as Homo sapiens) [SEQ ID NO: 22]” the “inflammatory response (ear thickness over 72 hours)” value [1] was “led to a reduced inflammatory response”.

In the case of “(Gd)DOTA-KKKK-PEG-TPGTQSPFFLLLLLTVLTVV (KKKK[PEG]TPGTQSPFF[Ala(3-Me-diazirin-3-yl)][Ala(3-Me-diazirin-3-yl)][Ala(3-Me-diazirin-3-yl)][Ala(3-Me-diazirin-3-yl)][Ala(3-Me-diazirin-3-yl)]TVLTVV; not fully specified (N-terminus); reading uncertain; also: Gd chelated by DOTA; listed as Homo sapiens) [SEQ ID NO: 32]”, the “specific increase in ear thickness” value [1] was “confirmed”.
